# From patent US7074190B2, “Non-invasive apparatus system for monitoring drug hepatoxicity and uses thereof” (priority 2002, dated 2006)
# System: adult dogs
# Assay: Artery blood pressure waveform analysis before and after taking the drug, dog experiment
# Assay type: in vivo
# [1] = Code A dog, 500 mg/kg oral, before and after taking the drug (12 hours)
# [2] = Code B dog, 1,200 mg/kg subcutaneous injection, 12 hours after taking the drug
# [3] = Code B dog, 1,200 mg/kg subcutaneous injection, before and after taking the drug (12 hours)
# Method: Two adult dogs weighing 12 and 15 kg were used. One (coded A) of them received 500 mg/kg of body weight of acetaminophen oral solution (dissolved in water); and the other one (coded B) received a higher concentration (1,200 mg/kg of body weight) of acetaminophen via subcutaneous injection. After Nembutal was injected and the respirator was put on, the hair on the front legs of the dogs was shaved and a blood pressure waveform sensor was inserted by operation. The waveform of artery blood pressure waveform on brachial position was continuously recorded and analyzed by a computer with a frequency of 100 data per minute. After surgery and before the drug was orally taken or injected, the blood pressure waveform of each dog was measured for two hours as the baseline. After the drug was orally taken or injected, the blood pressure waveform was continuously monitored for analyzing the hepatotoxicity induced by the drug, and blood samples were periodically taken from a tube inserted into the artery for determining the level of hepatotoxicuty.
# The definition of parameter altered amount is: (the parameter value after taking the drug—the parameter value before taking the drug)/the parameter value before taking the drug *100%
smiles,measurement,setting,value
CC(=O)Nc1ccc(O)cc1 [acetaminophen],Time parameter Altered Amount T3 = cd,[1],T3 = cd = −20.0 second
same,Time parameter Altered Amount T4 = de,[1],T4 = de = 23.5 second
same,Time parameter Altered Amount T5 = ae,[1],T5 = ae = 7.9 second
same,Time parameter Altered amount T1 = ab,[1],T1 = ab = −16.7 second
same,oblique angle parameter Altered amount D1 = (Bb-Aa)/ab,[1],D1 = (Bb-Aa)/ab = 22.7 mmHg/sec.
same,oblique angle parameter Altered amount D2 = (Bb-Cc)/bc,[1],D2 = (Bb-Cc)/bc = −10.2 mmHg/sec.
same,oblique angle parameter Altered amount D3 = (Dd-Cc)/cd,[1],D3 = (Dd-Cc)/cd = 40.0 mmHg/sec.
same,oblique angle parameter Altered amount D4 = (Dd-Ee)/de,[1],D4 = (Dd-Ee)/de = −8.3 mmHg/sec.
same,oblique angle parameter Altered amount D5 = D1 + D2,[1],D5 = D1 + D2 = 11.4 mmHg/sec.
same,oblique angle parameter Altered amount D6 = D3 + D4,[1],D6 = D3 + D4 = 26.2 mmHg/sec.
same,highest altered amount (oblique angle parameter),"Code A dog, 500 mg/kg oral, before vs 12 hours after taking the drug, all other parameters lower",40%
same,difference between the blood pressure waveforms before and after taking the drug,"Code A dog, 500 mg/kg oral, before vs after taking the drug for 12 hours (FIG. 5 vs FIG. 6)",no significant difference
same,Oblique angle parameter D1 = (Bb-Aa)/ab,[2],D1 = (Bb-Aa)/ab = 2250 mmHg/sec.
same,Oblique angle parameter D2 = (Bb-Ee)/be,[2],D2 = (Bb-Ee)/be = 1383 mmHg/sec.
same,Oblique angle parameter D3 = (Ff-Ee)/ef,[2],D3 = (Ff-Ee)/ef = 420 mmHg/sec.
same,Oblique angle parameter D4 = (Ff-Gg)/fg,[2],D4 = (Ff-Gg)/fg = 311 mmHg/sec.
same,Oblique angle parameter D5 = D1 + D2,[2],D5 = D1 + D2 = 3633 mmHg/sec.
same,Oblique angle parameter D6 = D3 + D4,[2],D6 = D3 + D4 = 731 mmHg/sec.
same,Pressure parameter P1 = Aa,[2],P1 = Aa = 16 mmHg
same,Pressure parameter P2 = Bb,[2],P2 = Bb = 106 mmHg
same,Pressure parameter P3 = Ee,[2],P3 = Ee = 23 mmHg
same,Pressure parameter P4 = Ff,[2],P4 = Ff = 44 mmHg
same,Pressure parameter P5 = Gg,[2],P5 = Gg = 16 mmHg
same,Ratio parameter RA1 = A6/A5,[2],RA1 = A6/A5 = 0.87
same,Ratio parameter RA2 = A5/A7,[2],RA2 = A5/A7 = 0.53
same,Ratio parameter RA3 = A6/A7,[2],RA3 = A6/A7 = 0.47
same,Ratio parameter RP1 = Ff/Bb,[2],RP1 = Ff/Bb = 0.42
same,Ratio parameter RT1 = ab/ag,[2],RT1 = ab/ag = 0.17
same,Ratio parameter RT2 = ae/ag,[2],RT2 = ae/ag = 0.42
same,Ratio parameter RT3 = af/ag,[2],RT3 = af/ag = 0.63
same,Superficial measure parameter A1 = AabB,[2],A1 = AabB = 2.44 sec. * mmHg
same,Superficial measure parameter A2 = BbeE,[2],A2 = BbeE = 2.58 sec. * mmHg
same,Superficial measure parameter A3 = EefF,[2],A3 = EefF = 1.68 sec. * mmHg
same,Superficial measure parameter A4 = FfgG,[2],A4 = FfgG = 2.70 sec. * mmHg
same,Superficial measure parameter A5 = A1 + A2,[2],A5 = A1 + A2 = 5.02 sec. * mmHg
same,Superficial measure parameter A6 = A3 + A4,[2],A6 = A3 + A4 = 4.38 sec. * mmHg
same,Superficial measure parameter A7 = A5 + A6,[2],A7 = A5 + A6 = 9.40 sec. * mmHg
same,Time parameter T1 = ab,[2],T1 = ab = 0.04 second
same,Time parameter T2 = be,[2],T2 = be = 0.06 second
same,Time parameter T3 = ef,[2],T3 = ef = 0.05 second
same,Time parameter T4 = fg,[2],T4 = fg = 0.09 second
same,Time parameter T5 = ag,[2],T5 = ag = 0.24 second
same,number of parameter altered amounts exceeding 100%,"Code B dog, 1,200 mg/kg subcutaneous injection, TABLE 8",six
same,Oblique angle parameter Altered amount D2 = (Bb-Ee)/be,[3],D2 = (Bb-Ee)/be = 349%
same,Oblique angle parameter Altered amount D3 = (Ff-Ee)/ef,[3],D3 = (Ff-Ee)/ef = 23%
same,Oblique angle parameter Altered amount D4 = (Ff-Gg)/fg,[3],D4 = (Ff-Gg)/fg = 677%
same,Pressure parameter Altered amount P1 = Aa,[3],P1 = Aa = −85%
same,Pressure parameter Altered amount P2 = Bb,[3],P2 = Bb = −25%
same,Pressure parameter Altered amount P3 = Ee,[3],P3 = Ee = −79%
same,Pressure parameter Altered amount P4 = Ff,[3],P4 = Ff = −65%
same,Pressure parameter Altered amount P5 = Gg,[3],P5 = Gg = −85%
same,Ratio parameter Altered amount RA1 = A6/A5,[3],RA1 = A6/A5 = 123%
same,Ratio parameter Altered amount RA2 = A5/A7,[3],RA2 = A5/A7 = 89%
same,Ratio parameter Altered amount RA3 = A6/A7,[3],RA3 = A6/A7 = −35%
same,Ratio parameter Altered amount RP1 = Ff/Bb,[3],RP1 = Ff/Bb = −51%
same,Ratio parameter Altered amount RT1 = ab/ag,[3],RT1 = ab/ag = 143%
same,Ratio parameter Altered amount RT2 = ae/ag,[3],RT2 = ae/ag = 55%
same,Ratio parameter Altered amount RT3 = af/ag,[3],RT3 = af/ag = 85%
same,Superficial measure parameter Altered amount A1 = AabB,[3],A1 = AabB = −62%
same,Superficial measure parameter Altered amount A2 = BbeE,[3],A2 = BbeE = −85%
same,Superficial measure parameter Altered amount A3 = EefF,[3],A3 = EefF = −72%
same,Superficial measure parameter Altered amount A4 = FfgG,[3],A4 = FfgG = −95%
same,Superficial measure parameter Altered amount A5 = A1 + A2,[3],A5 = A1 + A2 = −47%
same,Superficial measure parameter Altered amount A6 = A3 + A4,[3],A6 = A3 + A4 = −61%
same,Superficial measure parameter Altered amount A7 = A5 + A6,[3],A7 = A5 + A6 = −84%
same,Time parameter Altered amount T1 = ab,[3],T1 = ab = −20%
same,Time parameter Altered amount T2 = be,[3],T2 = be = −54%
same,Time parameter Altered amount T3 = ef,[3],T3 = ef = 0%
same,Time parameter Altered amount T4 = fg,[3],T4 = fg = −80%
same,Time parameter Altered amount T5 = ag,[3],T5 = ag = −64%
same,oblique angle parameter Altered amount D1 = (Bb-Aa)/ab,[3],D1 = (Bb-Aa)/ab = 162%
same,oblique angle parameter Altered amount D5 = D1 + D2,[3],D5 = D1 + D2 = 211%
same,oblique angle parameter Altered amount D6 = D3 + D4,[3],D6 = D3 + D4 = 92%
